Test results reported in paper PMC8066102, “Metabolic Profiles of New Unsymmetrical Bisacridine Antitumor Agents in Electrochemical and Enzymatic Noncellular Systems and in Tumor Cells” (Pharmaceuticals, 2021).

What was measured:
UGT2B15 = molecular target: T1, UGT2B15 (Homo sapiens, UniProt P54855); test: Glucuronidation with recombinant UGT2B15; format: in vitro ADME; parameters: key: −: the lack of UGT activity; +: the significant UGT activity; settings: 0.05 mM compound, 1 mg/mL UGT, 5 mM UDPGA
T1 construct: purchased Corning, NY, USA (through DIAG-MED, Poland); host or cells: baculovirus-insect cells (Supersomes)
T1 sequence (P54855 24-530): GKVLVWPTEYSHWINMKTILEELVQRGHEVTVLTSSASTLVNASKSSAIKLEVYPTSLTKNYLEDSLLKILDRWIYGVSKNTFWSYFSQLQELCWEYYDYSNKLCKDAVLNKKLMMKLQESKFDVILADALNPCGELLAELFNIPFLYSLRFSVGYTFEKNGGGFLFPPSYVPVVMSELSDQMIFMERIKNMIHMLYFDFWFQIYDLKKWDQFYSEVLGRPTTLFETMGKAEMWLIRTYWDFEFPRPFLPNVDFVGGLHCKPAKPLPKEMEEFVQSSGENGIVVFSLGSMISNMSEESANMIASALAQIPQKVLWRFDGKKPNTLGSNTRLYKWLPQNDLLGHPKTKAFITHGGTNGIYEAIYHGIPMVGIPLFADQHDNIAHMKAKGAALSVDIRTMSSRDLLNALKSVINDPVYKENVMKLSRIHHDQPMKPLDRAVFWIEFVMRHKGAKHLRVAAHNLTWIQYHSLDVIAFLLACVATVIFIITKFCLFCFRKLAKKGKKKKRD
Protocol: (§1) Recombinant UGT isoform protein (1 mg/mL) was assayed for activity toward tested UAs as follows. The proteins were incubated in a buffer containing 0.1 M HEPES (pH 7.4), 8 mM MgCl2 and alamethicin (25 μg/mL) with either 0.05 mM substrate in total volume 70 µL (alamethicin was added to permeabilize the membrane). Substrates were also in buffer HEPES, pH 7.4. Reactions were started by the addition of UDPGA (5 mM) and were incubated for specified time at 37 °C. The reactions were stopped by the addition of 8.75 µL of 1 M HCl, followed by centrifugation at 13400 rpm for 10 min to pellet the denatured protein. The supernatant fractions were used for HPLC analysis. Control reactions omitting substrate were run with each assay. All incubations were performed in two repetitions.

P4503A4 = molecular target: T2, P4503A4 (Homo sapiens, UniProt P08684); test: Modulation of P4503A4 activity (testosterone β-hydroxylation); format: in vitro ADME; settings: for mechanism of P4503A4 inhibition: testosterone 0.02-0.2 mM, inhibitor 0-0.01 mM, nonlinear regression; for decrease in activity of P4503A4: testosterone β-hydroxylation, all concentrations (0.01, 0.02 and 0.05 mM), 30 min
T2 construct: purchased Cypex, Dundee, Scotland, UK (through Tebu-Bio); host or cells: Escherichia coli (Bactosomes)
Protocol: Isoenzyme activity was studied by the rate measurement of β-hydroxylation of testosterone (specific substrate for P4503A4) and of glucuronidation of specific substrates, namely, SN-38 (UGT1A1), EPI (UGT2B7),) and TFK (UGT2B15). All substrate and drug solutions were prepared as 10 mM stock solutions in DMSO and were diluted in […] (pH 7.4). The mixture containing isoenzymes P4503A4/UGT (0.5 mg/mL), probe substrate (0.1 mM), cofactor 2 mM NADPH/5 mM UDPGA and the increasing concentrations of tested UA (0, 0.01, 0.02 and 0.05 mM) was incubated in the reaction buffer containing (i) for P4503A4 0.1 M HEPES, 88 mM MgCl2 and (ii) for UGT 0.1 M HEPES, 88 mM MgCl2, 25 μg/mL alamethicin at 37 °C for 30 min and were terminated by adding 8.75 µL of 0.1 M HCl. The samples were placed in ice for 10 min and centrifuged (10 min, 13,400 rpm). Supernatant fractions were analyzed by HPLC. For more accurate investigation of P4503A4 inhibition by C-2045 and C-2053 the β-hydroxylation rate was measured at various concentrations of testosterone: 0.02, 0.05, 0.1 and 0.2 mM. The inhibitor (UA) concentrations were 0, 0.001, 0.005 and 0.01 mM, whereas the incubation time 30 min and concentration of P4503A4 (0.5 mg/mL).

UGT 1A6 = molecular target: T3, UGT 1A6 (Homo sapiens, UniProt P19224); test: Glucuronidation with recombinant UGT1A6; format: in vitro ADME; parameters: key: −: the lack of UGT activity; +: the significant UGT activity; settings: 0.05 mM compound, 1 mg/mL UGT, 5 mM UDPGA
T3 construct: His tag; purchased Corning, NY, USA (through DIAG-MED, Poland); host or cells: baculovirus-insect cells (Supersomes); Results say Sf9 cells
T3 sequence (P19224 27-532): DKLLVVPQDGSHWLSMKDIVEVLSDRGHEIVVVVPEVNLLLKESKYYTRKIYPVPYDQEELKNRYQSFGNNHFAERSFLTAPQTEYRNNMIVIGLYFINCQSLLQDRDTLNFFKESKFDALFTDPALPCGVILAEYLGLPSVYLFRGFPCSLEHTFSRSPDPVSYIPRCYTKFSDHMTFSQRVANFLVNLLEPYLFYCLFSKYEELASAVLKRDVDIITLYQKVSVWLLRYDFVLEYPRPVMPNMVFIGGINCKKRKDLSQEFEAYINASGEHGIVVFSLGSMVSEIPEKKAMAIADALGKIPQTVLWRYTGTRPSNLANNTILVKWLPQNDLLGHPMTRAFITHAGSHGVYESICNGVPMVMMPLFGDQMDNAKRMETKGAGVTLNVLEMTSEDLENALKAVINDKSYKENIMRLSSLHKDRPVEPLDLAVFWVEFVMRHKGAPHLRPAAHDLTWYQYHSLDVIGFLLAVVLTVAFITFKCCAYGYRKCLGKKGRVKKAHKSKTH
Protocol: as §1

HT-29 cells = test: Drug metabolism and medium/cell extract distribution in HT-29 colon tumor cells; format: cell-based, human; settings: HT-29, 5 μM; for drug level in cell extract: 3-48 h; for metabolite formation in cells: post-culture media and cell extracts
Protocol: To analyze the transformation products of UAs in colon tumor cell lines, HCT-116 or HT-29 cells were plated in 60 mm Petri dishes; after reaching 80% of confluence, cells were treated with 5/25/50 μM of C-2028, C-2045 or C-2053 (prepared as 10 or 2 mM stock solutions in water) for specified time. Half of medium was added to acetonitrile (1:1, v/v), centrifuged (12 min, 13,400 rpm, 4 °C) and the supernatant was analyzed by HPLC (post-culture medium). Cells remaining on the Petri dishes were collected by gentle scraping, sedimented, washed with ice-cold PBS, suspended in ice-cold chloroform and lysed by sonication for 15 min. After 1 h on ice, insoluble material was removed by centrifugation at 13,000 rpm for 20 min at 4 °C. The sediment was discarded and supernatant (chloroform) were evaporated under pressure. Then, sample was suspended in ice-cold 60% methanol and directly analyzed by HPLC (cell extract).

T2 sequence (P08684 whole entry): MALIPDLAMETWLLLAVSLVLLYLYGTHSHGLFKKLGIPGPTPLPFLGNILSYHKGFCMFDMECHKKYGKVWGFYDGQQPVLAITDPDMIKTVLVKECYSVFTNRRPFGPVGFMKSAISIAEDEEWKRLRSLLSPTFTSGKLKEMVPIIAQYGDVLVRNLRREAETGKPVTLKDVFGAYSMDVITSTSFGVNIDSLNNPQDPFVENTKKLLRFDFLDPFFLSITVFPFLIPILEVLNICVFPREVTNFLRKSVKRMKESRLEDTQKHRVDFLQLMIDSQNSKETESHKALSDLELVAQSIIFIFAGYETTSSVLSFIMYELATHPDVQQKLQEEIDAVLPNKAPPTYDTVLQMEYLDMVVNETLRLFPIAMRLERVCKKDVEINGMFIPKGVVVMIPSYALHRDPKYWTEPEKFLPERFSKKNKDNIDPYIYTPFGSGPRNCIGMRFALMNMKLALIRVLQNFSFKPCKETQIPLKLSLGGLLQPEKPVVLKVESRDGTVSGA

| SMILES | Glucuronidation potency UGT 2B15 (UGT2B15) | mechanism of P4503A4 inhibition (P4503A4) | decrease in activity of P4503A4 (P4503A4) | Glucuronidation potency UGT 1A6 (UGT 1A6) | drug level in cell extract (HT-29 cells) | metabolite formation in cells (HT-29 cells) |
| --- | --- | --- | --- | --- | --- | --- |
| Cc1ccc([N+](=O)[O-])c2c(NCCCN(C)CCCNc3ccc4ncn5c6ccc(O)cc6c(=O)c3c45)c3ccccc3nc12 [C-2045] | − | non-competitive | over 90% |  |  |  |
| CN(CCCNc1c2ccccc2nc2cccc([N+](=O)[O-])c12)CCCNc1ccc2ncn3c4ccccc4c(=O)c1c23 [C-2028] | − |  |  | − | high up to 24 hours and diminished significantly after 48 hours | did not indicate the presence of metabolites |
| Cc1ccc([N+](=O)[O-])c2c(NCCCN(C)CCCNc3ccc4ncn5c6ccccc6c(=O)c3c45)c3ccccc3nc12 [C-2053] | − | competitive | above 50% | − | extremely high level | did not indicate the presence of metabolites |
